Data published in patent publication US6048523A, “Polyester cyclic compounds, their complexes and bonded bodies” (priority 1996, dated 2000).

Legend:
[1] = test system: Yoshida sarcomas; experiment: Yoshida sarcoma transplanted into rat, oral administration; format: in vivo, Donryu-rat; settings: 8 mg/kg/day, 2 weeks
Procedure: Yoshida sarcomas were transplanted into a Donryu-rat of an age of 5 weeks. […] After the administration, sizes of the sarcomas were measured.

[2] = test system: lactic acid bacteria; experiment: multiplication of lactic acid bacteria in MRS medium; format: cell-based; settings: 0.25 mg/10 ml MRS medium, 48 hours; read-out: Multiplication rates to control
Procedure: Pre-cultivated lactic acid bacteria were seeded into each MRS medium in a predetermined amount. After 48 hours, it was diluted to a predetermined magnification and inoculated on an MRS agar medium to measure the number of the bacteria.

[3] = test system: lactic acid bacteria in the bowel; experiment: number of lactic acid bacteria in the bowel of rats after oral administration; format: in vivo, rat; settings: oral 4 mg/kg/day, 4 weeks; upper limit of the measurement 20
From the text: After the administration, content of the bowel of each rat was taken, diluted to a predetermined magnification and inoculated on an MRS agar medium to measure the number of lactic acid bacteria in the bowel.

[4] = test system: macrophages; experiment: migration ability of macrophages (glass capillary method) after oral administration; format: in vivo, SD rat; settings: oral 4 mg/kg/day, 4 weeks; migration area after 24 hours; ratio to control group
Procedure: After the administration, liquid paraffin was administered into peritoneal cavity of each rat. Three days later, peritoneal exudate cells were taken. Migration ability of macrophages produced from the peritoneal exudate cells was tested by glass capillary method. After 24 hours, a migration area of the macrophage was measured and a ratio of the measured migration area to that of control group was calculated.

[5] = test system: Yoshida sarcoma cells; experiment: suppression of Yoshida sarcoma cells in culture; format: cell-based; settings: Rattus norvegicus, 72 h, 3 days, read-out: suppression rate to control
Procedure: A concentration of each compound or complex in the culture solution was adjusted to 1 mg/ml, 0.5 mg/ml, 0.25 mg/ml or 0.125 mg/ml. After the sarcoma cells were cultivated for 3 days, the number of the cells was measured.

With `CC1OC(=O)C(C)OC1=O` (stereo not drawn) [formula (4), lactide] the Size of sarcoma ([1]; average values) was 3216.6 mm^3, the Suppression rate ([1]; versus control) was 57.9% and the activity at 25 µg/mL [2] was 116%. The “Ratio to control (number of lactic acid bacteria in the bowel)” value [3] was 3.8, the “Ratio of the migration area” value [4] was 1.13 and the inhibition at 125 µg/mL ([5]; 0.125 mg/ml) was -18.2%. It also gave an inhibition at 250 µg/mL ([5]; 0.25 mg/ml) of 0%, an inhibition at 500 µg/mL ([5]; 0.5 mg/ml) of 0% and an inhibition at 1000 µg/mL ([5]; 1 mg/ml) of 40.9%.
